HELM strings list units from the 5' end as sugar, base in round brackets, then linkage (d deoxyribose, r ribose, m 2'-O-methyl, p phosphodiester). Strings are as the collection lists them, not checked against the first reports. ss, as = sense and antisense strand; [lna] = locked nucleic acid (LNA); [una] = unlocked nucleic acid; [hna] = hexitol nucleic acid; [s4r] = 4'-thioribose; [fl2r] = 2'-fluoro

19 substances from the OligoGym collection can be followed below.
Further: test system not given here.

For the data set the following is noted: siRNA.
Consider “RNA1{[lna](T)p.r(G)p.r(A)p.r(G)p.r(A)p.r(G)p.r(A)p.r(A)p.r(A)p.r(G)p.r(C)p.r(A)p.r(C)p.r(A)p.r(G)p.r(A)p.r(A)p.r(A)p.r(A)p.[lna](T)p.[lna](T)}|RNA2{r(U)p.r(U)p.r(U)p.r(U)p.r(C)p.r(U)p.r(G)p.r(U)p.r(G)p.r(C)p.r(U)p.r(U)p.r(U)p.r(C)p.r(U)p.r(C)p.r(U)p.r(C)p.r(A)p.d(T)p.d(T)}$$$RNA1{StrandType:ss}|RNA2{StrandType:as}$”, for which the target mRNA knockdown amounted to 70%.
With “RNA1{r(C)p.r(C)p.r(C)p.r(C)p.r(A)p.r(G)p.r(G)p.m(U)p.r(A)p.r(A)p.r(C)p.r(G)p.r(A)p.r(U)p.r(U)p.r(U)p.r(U)p.r(C)p.r(U)p.r(T)p.r(T)}|RNA2{r(A)p.r(G)p.r(A)p.r(A)p.r(A)p.r(A)p.r(U)p.r(C)p.r(G)p.r(U)p.m(U)p.r(A)p.r(C)p.r(C)p.r(U)p.r(G)p.r(G)p.r(G)p.r(G)p.r(T)p.r(T)}$$$RNA1{StrandType:ss}|RNA2{StrandType:as}$” the figure was 70%; with “RNA1{r(G)p.r(G)p.r(G)p.r(G)p.r(C)p.r(U)p.r(C)p.r(U)p.r(U)p.r(C)p.m(U)p.r(A)p.r(C)p.r(A)p.m(U)p.r(U)p.r(C)p.r(C)p.r(C)p.r(T)p.r(T)}|RNA2{r(G)p.r(G)p.r(G)p.r(A)p.r(A)p.m(U)p.r(G)p.m(U)p.r(A)p.r(G)p.r(A)p.r(A)p.r(G)p.r(A)p.r(G)p.r(C)p.r(C)p.r(C)p.r(C)p.r(T)p.r(T)}$$$RNA1{StrandType:ss}|RNA2{StrandType:as}$”, 68%.
“RNA1{r(A)p.r(A)p.r(A)p.r(G)p.r(C)p.r(G)p.r(G)p.r(U)p.r(G)p.r(G)p.r(A)p.r(U)p.r(C)p.r(A)p.r(G)p.r(C)p.r(U)p.r(C)p.r(U)p.r(T)p.r(T)}|RNA2{r(A)p.r(G)p.r(A)p.r(G)p.r(C)p.m(U)p.r(G)p.r(A)p.r(U)p.r(C)p.m(C)p.r(A)p.r(C)p.r(C)p.r(G)p.r(C)p.r(U)p.r(U)p.r(U)p.r(T)p.r(T)}$$$RNA1{StrandType:ss}|RNA2{StrandType:as}$” returned a target mRNA knockdown of 67%.
As for “RNA1{r(G)p.[hna](A)p.r(C)p.r(G)p.r(U)p.r(A)p.r(A)p.[hna](A)p.r(C)p.r(G)p.r(G)p.r(C)p.r(C)p.[hna](A)p.r(C)p.r(A)p.[hna](A)p.r(G)p.r(U)p.r(U)p.r(C)}|RNA2{[fl2r](A)p.m(C)p.[fl2r](U)p.m(U)p.[fl2r](G)p.m(U)p.[fl2r](G)p.m(G)p.[fl2r](C)p.m(C)p.[fl2r](G)p.m(U)p.[fl2r](U)p.m(U)p.[fl2r](A)p.m(C)p.[fl2r](G)p.m(U)p.[fl2r](C)p.m(G)p.[fl2r](C)}$$$RNA1{StrandType:ss}|RNA2{StrandType:as}$”, the target mRNA knockdown is 7.8%.
Next, “RNA1{[fl2r](A)p.r(A)p.[fl2r](G)p.r(U)p.[fl2r](A)p.r(G)p.[fl2r](U)p.r(C)p.[fl2r](C)p.r(C)p.[fl2r](C)p.r(C)p.[fl2r](U)p.r(U)p.[fl2r](G)p.r(A)p.[fl2r](A)p.r(G)p.r(A)p.r(T)p.r(T)}|RNA2{r(U)p.r(C)p.r(U)p.r(U)p.r(C)p.r(A)p.r(A)p.r(G)p.r(G)p.r(G)p.r(G)p.r(G)p.r(A)p.r(C)p.r(U)p.r(A)p.r(C)p.r(U)p.r(U)p.r(T)p.r(T)}$$$RNA1{StrandType:ss}|RNA2{StrandType:as}$”: 53%; “RNA1{r(G)p.r(C)p.r(A)p.r(G)p.r(C)p.r(A)p.r(C)p.r(G)p.r(A)p.r(C)p.r(U)p.r(U)p.r(C)p.r(U)p.r(U)p.r(C)p.r(A)p.r(A)p.r(G)p.r(T)p.r(T)}|RNA2{m(C)p.m(U)p.m(U)p.m(G)p.m(A)p.m(A)p.m(G)p.m(A)p.m(A)p.m(G)p.m(U)p.m(C)p.m(G)p.m(U)p.m(G)p.m(C)p.m(U)p.m(G)p.m(C)p.r(T)p.r(T)}$$$RNA1{StrandType:ss}|RNA2{StrandType:as}$”: 16%; “RNA1{m(A)p.r(A)p.m(G)p.r(G)p.m(A)p.r(C)p.m(C)p.r(U)p.m(A)p.r(G)p.m(A)p.r(G)p.m(G)p.r(A)p.m(G)p.r(U)p.m(C)p.r(A)p.m(C)p.r(T)p.r(T)}|RNA2{m(G)p.r(U)p.m(G)p.r(A)p.r(C)p.r(U)p.r(C)p.r(C)p.r(U)p.r(C)p.r(U)p.r(A)p.m(G)p.m(G)p.r(U)p.r(C)p.r(C)p.r(U)p.r(U)p.r(T)p.r(T)}$$$RNA1{StrandType:ss}|RNA2{StrandType:as}$”: 36%.
Next, “RNA1{r(A)p.r(G)p.r(A)p.r(G)p.r(A)p.r(G)p.r(G)p.[fl2r](U)p.r(G)p.r(G)p.r(A)p.r(G)p.r(G)p.[fl2r](U)p.r(A)p.r(U)p.r(C)p.[fl2r](U)p.r(C)p.r(T)p.r(T)}|RNA2{r(G)p.r(A)p.r(G)p.r(A)p.[fl2r](U)p.r(A)p.r(C)p.r(C)p.r(U)p.r(C)p.[fl2r](C)p.[fl2r](A)p.r(C)p.r(C)p.r(U)p.r(C)p.r(U)p.r(C)p.r(U)p.r(T)p.r(T)}$$$RNA1{StrandType:ss}|RNA2{StrandType:as}$”: 85%.
With “RNA1{r(C)p.r(G)p.r(A)p.r(A)p.r(A)p.r(G)p.[fl2r](U)p.r(G)p.[fl2r](U)p.r(A)p.r(U)p.r(C)p.r(C)p.r(G)p.r(A)p.r(A)p.r(G)p.r(A)p.r(C)p.r(T)p.r(T)}|RNA2{r(G)p.r(U)p.r(C)p.r(U)p.r(U)p.r(C)p.r(G)p.r(G)p.r(A)p.[fl2r](U)p.r(A)p.[fl2r](C)p.r(A)p.r(C)p.r(U)p.r(U)p.r(U)p.r(C)p.r(G)p.r(T)p.r(T)}$$$RNA1{StrandType:ss}|RNA2{StrandType:as}$” the figure was 75%.
“RNA1{r(A)p.r(G)p.r(A)p.r(A)p.r(G)p.m(U)p.r(A)p.r(C)p.m(C)p.r(A)p.r(G)p.r(G)p.r(A)p.r(G)p.m(G)p.r(C)p.r(G)p.r(U)p.r(U)p.r(T)p.r(T)}|RNA2{r(A)p.r(A)p.r(C)p.r(G)p.r(C)p.r(C)p.r(U)p.r(C)p.r(C)p.m(U)p.r(G)p.r(G)p.m(U)p.r(A)p.r(C)p.r(U)p.r(U)p.r(C)p.r(U)p.r(T)p.r(T)}$$$RNA1{StrandType:ss}|RNA2{StrandType:as}$” yielded a target mRNA knockdown of 68%.
As for “RNA1{r(C)p.r(G)p.r(U)p.r(A)p.r(C)p.r(G)p.r(C)p.r(G)p.r(G)p.r(A)p.r(A)p.r(U)p.r(A)p.[s4r](C)p.[s4r](U)p.[s4r](U)p.[s4r](C)p.[s4r](G)p.[s4r](A)p.r(T)p.r(T)}|RNA2{r(U)p.r(C)p.r(G)p.r(A)p.r(A)p.r(G)p.r(U)p.r(A)p.r(U)p.r(U)p.r(C)p.r(C)p.r(G)p.r(C)p.r(G)p.r(U)p.r(A)p.r(C)p.r(G)p.r(T)p.r(T)}$$$RNA1{StrandType:ss}|RNA2{StrandType:as}$”, the target mRNA knockdown was 93.8%.
Next, “RNA1{r(G)p.r(U)p.r(A)p.r(U)p.r(G)p.r(A)p.r(C)p.r(C)p.r(G)p.r(A)p.r(C)p.r(U)p.r(A)p.r(C)p.r(G)p.r(C)p.r(G)p.r(U)p.r(A)p.r(T)p.r(T)}|RNA2{r(U)p.r(U)p.r(C)p.r(A)p.r(G)p.r(U)p.r(G)p.r(U)p.r(G)p.r(A)p.r(U)p.r(G)p.[una](A)p.r(C)p.r(A)p.r(C)p.r(U)p.r(U)p.r(G)p.r(T)p.r(T)}$$$RNA1{StrandType:ss}|RNA2{StrandType:as}$”: 74%; “RNA1{[s4r](A)p.[s4r](A)p.r(A)p.r(C)p.r(A)p.r(U)p.r(G)p.r(C)p.r(A)p.r(G)p.r(A)p.r(A)p.r(A)p.r(A)p.r(U)p.r(G)p.r(C)p.r(U)p.r(G)p.r(T)p.r(T)}|RNA2{r(C)p.r(A)p.r(G)p.r(C)p.r(A)p.r(U)p.r(U)p.r(U)p.r(U)p.r(C)p.r(U)p.r(G)p.r(C)p.r(A)p.r(U)p.r(G)p.r(U)p.[s4r](U)p.[s4r](U)p.r(T)p.r(T)}$$$RNA1{StrandType:ss}|RNA2{StrandType:as}$”: 72.4%.
With “RNA1{r(A)p.r(U)p.r(C)p.r(G)p.r(A)p.r(C)p.r(C)p.m(U)p.r(G)p.r(A)p.r(A)p.r(G)p.r(G)p.r(A)p.r(G)p.m(U)p.r(A)p.r(C)p.r(G)p.r(T)p.r(T)}|RNA2{r(C)p.r(G)p.m(U)p.r(A)p.r(C)p.r(U)p.r(C)p.r(C)p.r(U)p.r(U)p.r(C)p.r(A)p.r(G)p.r(G)p.r(U)p.r(C)p.r(G)p.r(A)p.r(U)p.r(T)p.r(T)}$$$RNA1{StrandType:ss}|RNA2{StrandType:as}$” the figure was 30%; with “RNA1{r(A)p.r(G)p.r(C)p.r(C)p.r(C)p.r(A)p.r(G)p.r(A)p.[fl2r](U)p.r(A)p.r(G)p.r(C)p.r(U)p.r(C)p.r(U)p.r(U)p.r(C)p.r(A)p.r(G)p.r(T)p.r(T)}|RNA2{r(C)p.r(U)p.r(G)p.r(A)p.r(A)p.r(G)p.r(A)p.r(G)p.r(C)p.[fl2r](U)p.r(A)p.r(U)p.r(C)p.r(U)p.r(G)p.r(G)p.r(G)p.r(C)p.r(U)p.r(T)p.r(T)}$$$RNA1{StrandType:ss}|RNA2{StrandType:as}$”, 69%.
In turn, “RNA1{r(A)p.r(A)p.r(G)p.r(G)p.r(A)p.r(G)p.r(A)p.r(U)p.r(C)p.r(A)p.r(A)p.r(C)p.r(A)p.r(U)p.r(U)p.r(U)p.m(U)p.m(C)p.m(A)p.r(T)p.r(T)}|RNA2{r(U)p.r(G)p.r(A)p.r(A)p.r(A)p.r(A)p.r(U)p.r(G)p.r(U)p.r(U)p.r(G)p.r(A)p.r(U)p.r(C)p.r(U)p.r(C)p.m(C)p.m(U)p.m(U)p.r(T)p.r(T)}$$$RNA1{StrandType:ss}|RNA2{StrandType:as}$” returned a target mRNA knockdown of 73%.
Next, “RNA1{r(C)p.r(C)p.r(A)p.[fl2r](G)p.r(C)p.[fl2r](G)p.r(A)p.[fl2r](G)p.r(C)p.r(C)p.r(C)p.r(A)p.r(A)p.r(A)p.r(A)p.[fl2r](G)p.r(A)p.r(A)p.r(A)p.r(T)p.r(T)}|RNA2{[fl2r](U)p.r(U)p.[fl2r](U)p.r(C)p.[fl2r](U)p.r(U)p.[fl2r](U)p.r(U)p.[fl2r](G)p.r(G)p.[fl2r](G)p.r(C)p.[fl2r](U)p.r(C)p.[fl2r](G)p.r(C)p.[fl2r](U)p.r(G)p.[fl2r](G)p.r(T)p.r(T)}$$$RNA1{StrandType:ss}|RNA2{StrandType:as}$”: 35%; “RNA1{[s4r](A)p.[s4r](A)p.[s4r](A)p.[s4r](C)p.r(A)p.r(U)p.r(G)p.r(C)p.r(A)p.r(G)p.r(A)p.r(A)p.r(A)p.r(A)p.r(U)p.[s4r](G)p.[s4r](C)p.[s4r](U)p.[s4r](G)p.r(T)p.r(T)}|RNA2{[s4r](C)p.[s4r](A)p.r(G)p.r(C)p.r(A)p.r(U)p.r(U)p.r(U)p.r(U)p.r(C)p.r(U)p.r(G)p.r(C)p.r(A)p.r(U)p.r(G)p.r(U)p.[s4r](U)p.[s4r](U)p.r(T)p.r(T)}$$$RNA1{StrandType:ss}|RNA2{StrandType:as}$”: 66.3%.
